Tested on: SEM cells
Experiment: cell viability relative to DMSO control; higher = less cytotoxic
Details: 48 h
Procedure, shortened: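 Viability is expressed as a percentage of DMSO wells within each plate, and cell-free wells serve as background. Seeding densities in the 1536-well plates (5 μl) were 500 cells/well for NOMO1 or SEM leukemia cells and 1000 cells/well for P12-Ichikawa. Each line was adapted for at least four passages in each medium. Library compounds in DMSO were pin-dosed at 47 μM to 0.79 nM (11 points, threefold), and CellTiter-Glo One luminescence was read after 48 h at 37°C.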

[1] = HPLM + 10% dialyzed FBS, 0.000781 µM
[2] = HPLM + 10% dialyzed FBS, 0.00234 µM
[3] = HPLM + 10% dialyzed FBS, 0.00702 µM
[4] = HPLM + 10% dialyzed FBS, 0.0211 µM
[5] = HPLM + 10% dialyzed FBS, 0.0632 µM
[6] = HPLM + 10% dialyzed FBS, 0.19 µM
[7] = HPLM + 10% dialyzed FBS, 0.569 µM
[8] = HPLM + 10% dialyzed FBS, 1.71 µM
[9] = HPLM + 10% dialyzed FBS, 5.12 µM
[10] = HPLM + 10% dialyzed FBS, 15.4 µM
[11] = HPLM + 10% dialyzed FBS, 46.1 µM
[12] = RPMI 5 mM glucose + 10% FBS, 0.000781 µM
[13] = RPMI 5 mM glucose + 10% FBS, 0.00234 µM
[14] = RPMI 5 mM glucose + 10% FBS, 0.00702 µM
[15] = RPMI 5 mM glucose + 10% FBS, 0.0211 µM
[16] = RPMI 5 mM glucose + 10% FBS, 0.0632 µM
[17] = RPMI 5 mM glucose + 10% FBS, 0.19 µM
[18] = RPMI 5 mM glucose + 10% FBS, 0.569 µM
[19] = RPMI 5 mM glucose + 10% FBS, 1.71 µM
[20] = RPMI 5 mM glucose + 10% FBS, 5.12 µM
[21] = RPMI 5 mM glucose + 10% FBS, 15.4 µM
[22] = RPMI 5 mM glucose + 10% FBS, 46.1 µM
[23] = RPMI 5 mM glucose + 10% dialyzed FBS, 0.000781 µM
[24] = RPMI 5 mM glucose + 10% dialyzed FBS, 0.00234 µM
[25] = RPMI 5 mM glucose + 10% dialyzed FBS, 0.00702 µM
[26] = RPMI 5 mM glucose + 10% dialyzed FBS, 0.0211 µM
[27] = RPMI 5 mM glucose + 10% dialyzed FBS, 0.0632 µM
[28] = RPMI 5 mM glucose + 10% dialyzed FBS, 0.19 µM
[29] = RPMI 5 mM glucose + 10% dialyzed FBS, 0.569 µM
[30] = RPMI 5 mM glucose + 10% dialyzed FBS, 1.71 µM
[31] = RPMI 5 mM glucose + 10% dialyzed FBS, 5.12 µM
[32] = RPMI 5 mM glucose + 10% dialyzed FBS, 15.4 µM
[33] = RPMI 5 mM glucose + 10% dialyzed FBS, 46.1 µM

Row | SMILES | cell viability [1] | cell viability [2] | cell viability [3] | cell viability [4] | cell viability [5] | cell viability [6] | cell viability [7] | cell viability [8] | cell viability [9] | cell viability [10] | cell viability [11] | cell viability [12] | cell viability [13] | cell viability [14] | cell viability [15] | cell viability [16] | cell viability [17] | cell viability [18] | cell viability [19] | cell viability [20] | cell viability [21] | cell viability [22] | cell viability [23] | cell viability [24] | cell viability [25] | cell viability [26] | cell viability [27] | cell viability [28] | cell viability [29] | cell viability [30] | cell viability [31] | cell viability [32] | cell viability [33]
1 | Nc1nc(-c2nn(Cc3ccccc3F)c3ncccc23)nc(N)c1N1CCOCC1 | 88.9% | 87.4% | 96% | 96.1% | 101% | 110% | 99.3% | 116% | 104% | 93.5% | 89.8% | 98% | 84.6% | 103% | 115% | 106% | 111% | 111% | 121% | 94.2% | 89.6% | 80.6% | 93.8% | 85.6% | 113% | 99.9% | 104% | 85.2% | 104% | 126% | 101% | 96.2% | 90.9%
2 | Fc1ccc(C(c2ccc(F)cc2)N2CCN(C/C=C/c3ccccc3)CC2)cc1 | 113% | 126% | 109% | 102% | 116% | 76.8% | 111% | 109% | 55.8% | 96.2% | 81.6% |  |  |  |  |  |  |  |  |  |  |  |  |  |  |  |  |  |  |  |  |  | 
3 | C[C@@H](c1ncncc1F)[C@](O)(Cn1cncn1)c1ccc(F)cc1F | 119% | 116% | 118% | 110% | 121% | 25.3% | 114% | 118% | 19% | 120% | 83.4% |  |  |  |  |  |  |  |  |  |  |  | 123% | 125% | 126% | 126% | 141% | 32.3% | 140% | 103% | 15.2% | 121% | 73.9%
4 | NC(=O)N1c2ccccc2CC(=O)c2ccccc21 |  |  |  |  |  |  |  |  |  |  |  | 124% | 135% | 121% | 132% | 126% | 123% | 139% | 137% | 137% | 161% | 142% | 110% | 116% | 114% | 117% | 129% | 118% | 105% | 124% | 122% | 123% | 147%
5 | Cc1cc(O)c2c3c4c(cc(O)c13)C(C)(C)C(=O)c1c(O)cc(O)c(c1-4)C2=O | 104% | 110% | 108% | 91.5% | 120% | 114% | 106% | 117% | 98.7% | 90.8% | 66.1% |  |  |  |  |  |  |  |  |  |  |  | 91.4% | 90.9% | 92% | 94.3% | 110% | 113% | 98% | 84.2% | 97.4% | 88.6% | 65.5%
6 | O=C/1\C=C(/OC(=C1)/C2=C3SC4=C(SC3=CC=C2)C=CC=C4)N5CCOCC5 | 74.3% | 84.1% | 92.6% | 21.5% | 99.7% | 105% | 102% | 104% | 96.3% | 90.3% | 86.7% | 85.8% | 92.7% | 101% | 15.8% | 109% | 117% | 108% | 105% | 106% | 105% | 112% | 91.5% | 87.6% | 88% | 15.5% | 93% | 99.1% | 96% | 108% | 91.4% | 85.5% | 91.3%
7 | COc1cc(N2CCC(O)CC2)ccc1Nc1cc(Nc2ccccc2[S+](=O)([O-])C(C)C)c2cc[nH]c2n1 | 87.5% | 71.5% | 79.4% | 79.2% | 81.4% | 58.7% | 34.3% | 83.4% | 44% | 17.7% | 22.2% |  |  |  |  |  |  |  |  |  |  |  | 93.2% | 94.6% | 82.4% | 96.8% | 86.3% | 60.7% | 27.6% | 81.1% | 53.9% | 21.1% | 18.3%
8 | O=C1NC(=O)[C@@H](c2cn3c4c(cccc24)CCC3)[C@@H]1c1c[nH]c2ccccc12 | 91.6% | 98.3% | 111% | 99.9% | 93.8% | 75.2% | 96.5% | 39.9% | 25.5% | 22.3% | 28.9% | 117% | 114% | 113% | 115% | 124% | 76.2% | 88% | 27.4% | 20.6% | 16.2% | 22.5% | 90.6% | 98.5% | 103% | 84.1% | 114% | 83.2% | 102% | 39.1% | 22.7% | 16.4% | 34.4%
9 | COc1cc2c(N3CCN(C(=O)Nc4ccc(OC(C)C)cc4)CC3)ncnc2cc1OCCCN1CCCCC1 | 66.4% | 73.3% | 82.7% | 93.8% | 56.3% | 32.1% | 41.1% | 33.8% | 38% | 13.8% | 15.1% | 89.5% | 104% | 116% | 98.1% | 73% | 66.8% | 51.3% | 39.1% | 46.6% | 16.2% | 22.6% | 82.2% | 85.2% | 83.3% | 77.8% | 65% | 35.5% | 37.3% | 26.1% | 27.6% | 14.1% | 12.8%

Source: the supplement of paper PMC11451515
